Measured values as given in the supplement of paper PMC11451515.

Tested on: P12-Ichikawa
Test: cell viability relative to DMSO control; higher = less cytotoxic
Conditions: 48 h
Method in brief: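 NOMO1, SEM and P12-Ichikawa leukemia cells spent at least four passages adapting to each medium before use. They were seeded at 500 cells/well (NOMO1, SEM) or 1000 cells/well (P12-Ichikawa) in 5 μl in 1536-well plates and pin-dosed with library compounds in DMSO at 11 threefold steps from 47 μM down to 0.79 nM. After 48 h at 37°C, CellTiter-Glo One luminescence was read. Viability is reported as a percentage of the DMSO wells on each plate, with cell-free wells as background.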

[1] = HPLM + 10% dialyzed FBS, 0.000781 µM
[2] = HPLM + 10% dialyzed FBS, 0.00234 µM
[3] = HPLM + 10% dialyzed FBS, 0.00702 µM
[4] = HPLM + 10% dialyzed FBS, 0.0211 µM
[5] = HPLM + 10% dialyzed FBS, 0.0632 µM
[6] = HPLM + 10% dialyzed FBS, 0.19 µM
[7] = HPLM + 10% dialyzed FBS, 0.569 µM
[8] = HPLM + 10% dialyzed FBS, 1.71 µM
[9] = HPLM + 10% dialyzed FBS, 5.12 µM
[10] = HPLM + 10% dialyzed FBS, 15.4 µM
[11] = HPLM + 10% dialyzed FBS, 46.1 µM
[12] = RPMI 5 mM glucose + 10% FBS, 0.000781 µM
[13] = RPMI 5 mM glucose + 10% FBS, 0.00234 µM
[14] = RPMI 5 mM glucose + 10% FBS, 0.00702 µM
[15] = RPMI 5 mM glucose + 10% FBS, 0.0211 µM
[16] = RPMI 5 mM glucose + 10% FBS, 0.0632 µM
[17] = RPMI 5 mM glucose + 10% FBS, 0.19 µM
[18] = RPMI 5 mM glucose + 10% FBS, 0.569 µM
[19] = RPMI 5 mM glucose + 10% FBS, 1.71 µM
[20] = RPMI 5 mM glucose + 10% FBS, 5.12 µM
[21] = RPMI 5 mM glucose + 10% FBS, 15.4 µM
[22] = RPMI 5 mM glucose + 10% FBS, 46.1 µM
[23] = RPMI 5 mM glucose + 10% dialyzed FBS, 0.000781 µM
[24] = RPMI 5 mM glucose + 10% dialyzed FBS, 0.00234 µM
[25] = RPMI 5 mM glucose + 10% dialyzed FBS, 0.00702 µM
[26] = RPMI 5 mM glucose + 10% dialyzed FBS, 0.0211 µM
[27] = RPMI 5 mM glucose + 10% dialyzed FBS, 0.0632 µM
[28] = RPMI 5 mM glucose + 10% dialyzed FBS, 0.19 µM
[29] = RPMI 5 mM glucose + 10% dialyzed FBS, 0.569 µM
[30] = RPMI 5 mM glucose + 10% dialyzed FBS, 1.71 µM
[31] = RPMI 5 mM glucose + 10% dialyzed FBS, 5.12 µM
[32] = RPMI 5 mM glucose + 10% dialyzed FBS, 15.4 µM
[33] = RPMI 5 mM glucose + 10% dialyzed FBS, 46.1 µM

SMILES | cell viability [1] [%] | cell viability [2] [%] | cell viability [3] [%] | cell viability [4] [%] | cell viability [5] [%] | cell viability [6] [%] | cell viability [7] [%] | cell viability [8] [%] | cell viability [9] [%] | cell viability [10] [%] | cell viability [11] [%] | cell viability [12] [%] | cell viability [13] [%] | cell viability [14] [%] | cell viability [15] [%] | cell viability [16] [%] | cell viability [17] [%] | cell viability [18] [%] | cell viability [19] [%] | cell viability [20] [%] | cell viability [21] [%] | cell viability [22] [%] | cell viability [23] [%] | cell viability [24] [%] | cell viability [25] [%] | cell viability [26] [%] | cell viability [27] [%] | cell viability [28] [%] | cell viability [29] [%] | cell viability [30] [%] | cell viability [31] [%] | cell viability [32] [%] | cell viability [33] [%]
COc1ccc(C2Sc3ccccc3N(CCN(C)C)C(=O)C2OC(C)=O)cc1 (stereo not drawn) | 102 | 115 | 103 | 108 | 112 | 121 | 112 | 102 | 109 | 112 | 93.9 | 101 | 112 | 110 | 108 | 104 | 112 | 110 | 107 | 99.8 | 103 | 98.3 | 122 | 108 | 108 | 112 | 113 | 112 | 110 | 109 | 104 | 105 | 92.8
O=C\1N(N\C=C1[N]2C=CN=N2)C3=NC=NC(=C3)N4CCOCC4 | 78.4 | 81.7 | 76.7 | 82.8 | 56.6 | 32.5 | 18.6 | 20.6 | 19.2 | 15.9 | 8.11 | 68.7 | 82.9 | 76.4 | 81 | 74.8 | 46.8 | 13.4 | 30.9 | 16.8 | 15.2 | 11.9 | 74.2 | 83.1 | 78.1 | 78.6 | 72.2 | 47.2 | 34.4 | 38.9 | 20.8 | 26.8 | 17
Cn1cc(/C=C2\C(=O)Nc3cccnc32)c2ccccc21 | 116 | 124 | 127 | 121 | 133 | 133 | 124 | 134 | 126 | 15.5 | 16.6 | – | – | – | – | – | – | – | – | – | – | – | – | – | – | – | – | – | – | – | – | – | –
CCC(=O)N[C@H]1CC[C@H](C(=O)N(C)c2ccc(-c3nc4ccccc4o3)cc2)C1 | 95.4 | 97.1 | 101 | 102 | 100 | 99.5 | 110 | 103 | 107 | 104 | 84.4 | 92.3 | 95.4 | 96.4 | 91.3 | 101 | 105 | 108 | 95.6 | 97.5 | 100 | 54.8 | 89.9 | 92.2 | 91.5 | 98.3 | 94 | 99.7 | 98.2 | 109 | 99 | 94.6 | 65.1
C[C@@H](NC(=O)c1ncnc(N)c1Cl)c1ncc(C(=O)Nc2cc(C(F)(F)F)c(Cl)cn2)s1 | 124 | 119 | 121 | 123 | 120 | 122 | 116 | 115 | 116 | 104 | 92.7 | – | – | – | – | – | – | – | – | – | – | – | – | – | – | – | – | – | – | – | – | – | –
C=CC(=O)Nc1cccc(Nc2nc(NC3CCC(N(C)C)CC3)nc3c2ncn3C(C)C)c1 (stereo not drawn) | 107 | 115 | 112 | 106 | 112 | 113 | 105 | 85.3 | 36.7 | 11.1 | 5.85 | 115 | 114 | 114 | 112 | 115 | 112 | 107 | 94.8 | 28.6 | 8.46 | 5.44 | 108 | 110 | 108 | 116 | 122 | 119 | 123 | 114 | 35.5 | 11 | 6.55
CC1(C)CNc2cc(NC(=O)c3cccnc3NCc3ccncc3)ccc21 | 120 | 115 | 125 | 121 | 128 | 116 | 117 | 118 | 112 | 110 | 101 | 127 | 117 | 122 | 116 | 115 | 106 | 119 | 117 | 111 | 105 | 107 | 121 | 124 | 128 | 121 | 120 | 120 | 123 | 112 | 113 | 113 | 96.1
COc1ccc([C@@H]2CC(=O)c3c(O)cc(O[C@@H]4O[C@H](CO[C@@H]5O[C@@H](C)[C@H](O)[C@@H](O)[C@H]5O)[C@@H](O)[C@H](O)[C@H]4O)cc3O2)cc1O | 97.9 | 99 | 116 | 118 | 113 | 116 | 107 | 116 | 114 | 111 | 116 | 96.2 | 101 | 110 | 113 | 107 | 114 | 111 | 106 | 107 | 116 | 109 | 104 | 111 | 109 | 108 | 114 | 111 | 113 | 111 | 108 | 115 | 109
CN1\C(=C(\O)C2=C(C=CC=C2)[S+]1([O-])=O)C(=O)NC3=CC=CC=N3 | 96.6 | 104 | 109 | 119 | 107 | 110 | 70.9 | 101 | 73.1 | 30.5 | 12.2 | 104 | 111 | 114 | 105 | 108 | 109 | 82.4 | 105 | 70.2 | 42 | 10.4 | 96.9 | 97.7 | 99.5 | 112 | 105 | 106 | 85.7 | 106 | 81.9 | 60.1 | 12.4
CN(C)CCN(C)C(=O)c1ccc(NC(=O)Nc2ccc(-c3nc(N4CCOCC4)c4ccn(CC(F)(F)F)c4n3)cc2)cc1 | 114 | 120 | 112 | 122 | 106 | 100 | 101 | 89.7 | 90.8 | 90.8 | 83.2 | 115 | 114 | 121 | 118 | 85 | 77.9 | 77.7 | 67.6 | 64.9 | 65.4 | 69.9 | – | – | – | – | – | – | – | – | – | – | –
CC(C)C[C@H](NC(=O)CNC(=O)c1cc(Cl)ccc1Cl)B(O)O | 91 | 98.3 | 99.7 | 14.2 | 106 | 78 | 6.35 | 5.51 | 4.53 | 3 | 2.23 | 78.7 | 89 | 85.8 | 11.8 | 102 | 73.1 | 6.15 | 5.14 | 4.49 | 3.12 | 1.86 | 88.7 | 88.6 | 91.2 | 21.6 | 100 | 88 | 6.52 | 5.26 | 4.56 | 2.86 | 1.63
Cn1c(=O)n(-c2ccc(C(C)(C)C#N)cc2)c2c3cc(-c4cnc5ccccc5c4)ccc3ncc21 | 108 | 120 | 113 | 105 | 110 | 98 | 92.1 | 43.2 | 18.2 | 13.3 | 17.6 | 114 | 108 | 106 | 90.6 | 88.2 | 82.7 | 67.6 | 67.2 | 42.1 | 10.7 | 12.1 | 110 | 117 | 111 | 105 | 101 | 82 | 81.1 | 57 | 33.4 | 15.3 | 16.1
C/C(O)=C(\C#N)C(=O)Nc1cc(Br)ccc1Br | 105 | 110 | 114 | 109 | 109 | 109 | 108 | 105 | 99.6 | 97.9 | 95 | 100 | 109 | 104 | 108 | 105 | 107 | 100 | 101 | 104 | 96.4 | 86.5 | 106 | 113 | 114 | 109 | 106 | 104 | 103 | 116 | 96.3 | 94.5 | 94.5
CCC(=C/[C@H](C)C/C=C/C(C)=C/[C@@H](C)C(=O)[C@@H](C)[C@H](O)[C@@H](C)C/C(C)=C/C(=O)O)/C=C/[C@@H]1OC(=O)C=C[C@@H]1C | 110 | 114 | 116 | 117 | 118 | 115 | 129 | 109 | 6.55 | 4.69 | 7.83 | 106 | 119 | 111 | 127 | 121 | 118 | 114 | 96.1 | 5.34 | 3.16 | 8.25 | 99.9 | 107 | 109 | 115 | 107 | 111 | 108 | 91.1 | 5.62 | 4.96 | 13.8
CN1CCCC(CC1)N2\N=C(CC3=CC=C(Cl)C=C3)/C4=C(C=CC=C4)C2=O (stereo not drawn) | 112 | 112 | 116 | 111 | 123 | 112 | 119 | 112 | 116 | 94.5 | 51.9 | 109 | 105 | 113 | 116 | 117 | 126 | 123 | 121 | 122 | 114 | 66.2 | 109 | 109 | 109 | 113 | 124 | 128 | 121 | 114 | 118 | 103 | 65.9
COc1ccc2[nH]c([S+]([O-])Cc3ncc(C)c(OC)c3C)nc2c1 (stereo not drawn) | 82.5 | 85.9 | 92.3 | 90 | 91.6 | 90 | 90.4 | 92 | 95.5 | 95.4 | 78.4 | 73.7 | 86.8 | 81.3 | 89.6 | 85.1 | 78 | 85.8 | 91.9 | 85.2 | 84.9 | 67.4 | 79.2 | 79.8 | 78.2 | 77 | 76.8 | 75.1 | 76.7 | 76.4 | 70.6 | 79.6 | 66.6
